The assay addresses PIK3CG (human) (UniProt P48736). Description: Inhibition of PIK3CG Kinase Activity.

One may read the Ki as a dissociation constant, usually derived from enzyme kinetics or from competition with a known ligand.

A value given as a limit tells only on which side of the number the result lay.

Chain of PIK3CG (human) (P48736 whole entry, looked up): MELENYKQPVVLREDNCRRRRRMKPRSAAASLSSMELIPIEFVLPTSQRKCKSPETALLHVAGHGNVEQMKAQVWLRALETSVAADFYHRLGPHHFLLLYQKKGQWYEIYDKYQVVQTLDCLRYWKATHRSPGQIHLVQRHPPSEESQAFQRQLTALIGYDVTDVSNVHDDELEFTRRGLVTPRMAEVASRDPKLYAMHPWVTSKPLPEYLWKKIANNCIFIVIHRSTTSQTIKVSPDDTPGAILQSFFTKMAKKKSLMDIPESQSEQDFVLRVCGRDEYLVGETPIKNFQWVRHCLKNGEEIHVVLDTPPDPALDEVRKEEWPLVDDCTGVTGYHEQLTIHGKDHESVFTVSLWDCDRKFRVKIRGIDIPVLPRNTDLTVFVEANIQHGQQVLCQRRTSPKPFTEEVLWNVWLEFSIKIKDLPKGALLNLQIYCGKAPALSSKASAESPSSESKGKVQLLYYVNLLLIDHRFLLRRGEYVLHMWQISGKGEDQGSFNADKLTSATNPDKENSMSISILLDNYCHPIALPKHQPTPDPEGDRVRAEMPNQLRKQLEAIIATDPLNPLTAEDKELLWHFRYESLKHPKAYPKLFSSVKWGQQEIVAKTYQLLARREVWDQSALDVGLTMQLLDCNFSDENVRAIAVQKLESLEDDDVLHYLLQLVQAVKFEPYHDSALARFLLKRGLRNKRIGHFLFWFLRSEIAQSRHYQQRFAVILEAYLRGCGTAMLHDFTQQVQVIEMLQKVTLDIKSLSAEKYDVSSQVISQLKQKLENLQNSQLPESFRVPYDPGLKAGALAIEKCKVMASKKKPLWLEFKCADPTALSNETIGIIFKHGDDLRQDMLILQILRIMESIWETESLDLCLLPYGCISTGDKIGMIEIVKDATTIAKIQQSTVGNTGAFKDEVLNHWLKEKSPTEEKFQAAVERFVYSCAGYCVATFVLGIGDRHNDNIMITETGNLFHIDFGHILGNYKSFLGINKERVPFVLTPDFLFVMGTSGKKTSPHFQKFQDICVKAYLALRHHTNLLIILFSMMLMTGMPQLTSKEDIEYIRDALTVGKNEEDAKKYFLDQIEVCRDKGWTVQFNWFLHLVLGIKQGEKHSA

The compound `COc1cc(-c2ccc3c(n2)CN(c2cnn(C4CC4)c2)C3=O)cnc1OC` showed an inhibition constant Ki of under 100 nM.

On to `COc1cc(-c2ccc3c(n2)CN(c2ccc(N4CCC(O)CC4)nc2)C3=O)cnc1OC`, for which the Ki is under 100 nM.

For `COc1ncc(-c2cc(C)c3c(n2)CN(c2cn[nH]c2)C3=O)cc1OCC1CC1`, the Ki was under 100 nM.

Consider `COc1ncc(-c2cc(C)c3c(n2)C(C)(C)N(c2cnn(CC(F)(F)F)c2)C3=O)cc1C(=O)NC[C@@H](O)CO`, for which the inhibitory constant (Ki) was under 100 nM.

Take `COc1cc(-c2ccc3c(n2)C(C)N(c2cccc(C(C)(C)C#N)n2)C3=O)cnc1OC` (stereo not given): the Ki is under 100 nM.

Turning to `COc1cc(-c2ccc3c(n2)CN(c2ccn(C)n2)C3=O)cnc1OC`, the inhibition constant Ki is under 100 nM.

With `COc1cc(OC)cc(-c2cc(C)c3c(n2)CN(c2cnn(C(C)(C)C#N)c2)C3=O)c1`, the inhibition constant Ki was under 100 nM.

As for `COCCn1cc(N2Cc3nc(-c4cnc(OC)c(OC)c4)ccc3C2=O)cn1`, the Ki is under 100 nM.

Compound `CCC1c2nc(-c3cncc(OC(F)F)c3)cc(C)c2C(=O)N1c1cnn(CC(F)(F)F)c1` (stereo not given) gave a Ki of under 100 nM.

On to `COc1cc(-c2ccc3c(n2)CN(c2cnn(Cc4cn(C)cn4)c2)C3=O)cnc1OC`, for which the Ki was under 100 nM.

As to `COc1cc(-c2ccc3c(n2)CN(c2cnn(CC(F)F)c2)C3=O)cnc1OC`, the inhibitory constant (Ki) is under 100 nM.

The compound `COc1cc(-c2cc(C)c3c(n2)C2(CCCO2)N(c2cnn(CC(F)(F)F)c2)C3=O)cnc1OC(C)C` (stereo not given) yielded a Ki of under 100 nM.

As to `CCOc1ncc(-c2cc(C)c3c(n2)[C@@]2(CCCO2)N(c2ccn(CC)n2)C3=O)cc1OC`, the Ki is 100 to 490 nM.

For the compound `COc1cncc(-c2cc(C)c3c(n2)CN(c2ccn([C@@H]4CCOC4)n2)C3=O)c1`, the Ki was under 100 nM.

In turn, `COc1cncc(-c2cc(C)c3c(n2)C2(CNC2)N(c2cnn(CC(F)(F)F)c2)C3=O)c1` returned an inhibition constant Ki of under 100 nM.

Turning to `N#CCn1cc(N2Cc3cc(-c4cnc5ccccc5c4)ccc3C2=O)cn1`, the Ki lay within 100 to 490 nM.

Compound `COc1cc(-c2cc(C)c3c(n2)CN(c2nc(C)cs2)C3=O)cnc1OC` showed a Ki of under 100 nM.

As for `CCOc1cc(-c2cc(C)c3c(c2)CN(c2cnn(CC(F)(F)F)c2)C3=O)cnc1OCC`, the Ki is under 100 nM.

Compound `COc1ncc(-c2cc(C)c3c(n2)CN(c2cnn(CC#N)c2)C3=O)cn1` gave a Ki of under 100 nM.

As for `COc1cc(-c2cc(C)c3c(c2)C(C)N(c2cnn(CC(F)(F)F)c2)C3=O)cnc1OC` (stereo not given), the Ki is under 100 nM.

The compound `COCCOCn1cc(N2C(=O)c3ccc(-c4cnc(OC)c(OC)c4)nc3[C@H]2C)cn1` registered an inhibitory constant (Ki) of under 100 nM.

The compound `COc1cncc(-c2cc(C)c3c(c2)CN(c2cnn(CC(F)(F)F)c2)C3=O)c1` gave a Ki of under 100 nM.

Compound `CCOc1ncc(-c2cc(C)c3c(n2)CN(c2cnn(C(C)(C)C#N)c2)C3=O)cc1OC` came in with a Ki of under 100 nM.

Compound `Cc1cc(-c2cncc(OC(F)F)c2)nc2c1C(=O)N(c1cnn(CC(F)(F)F)c1)C2(C)C` registered an inhibition constant Ki of under 100 nM.

For the compound `COc1cc(-c2ccc3c(c2)CN(c2cnn(CCCO)c2)C3=O)cnc1OC`, the inhibition constant (Ki) was in the range of 100 to 490 nM.

`CCn1cc(N2C(=O)c3ccc(-c4cnc(OC)c(OC(F)F)c4)nc3[C@@H]2C)cn1` came in with a Ki of under 100 nM.

For the compound `Cc1cc(-c2cc(O)cc(OC(F)(F)F)c2)nc2c1C(=O)N(c1cnn(CC(F)(F)F)c1)C2`, the Ki was under 100 nM.

As to `COc1cc(-c2ccc3c(n2)CN(c2ccnc(OCC(F)F)c2)C3=O)cnc1OC`, the inhibition constant Ki lay in the range of 100 to 490 nM.

For `COc1cc(-c2ccc3c(n2)CN(c2cnn(CC4CC4)c2)C3=O)cnc1OC`, the inhibitory constant (Ki) was under 100 nM.

`COc1cc(-c2cc(C)c3c(n2)CN(c2ccn(C)n2)C3=O)cnc1OC`: the Ki is under 100 nM.

On to `CCn1cc(N2Cc3nc(-c4cnc(OC)c(OCC(F)F)c4)cc(C)c3C2=O)cn1`, for which the Ki is under 100 nM.

Take `COc1cncc(-c2cc(C)c3c(n2)CN(c2cc[nH]n2)C3=O)c1`: the Ki is under 100 nM.

Take `COc1cc(-c2ccc3c(n2)CN(c2cnn(Cc4cccnc4)c2)C3=O)cnc1OC`: the Ki is under 100 nM.

Turning to `CCOc1cc(-c2cc(C)c3c(n2)C(C)(C)N(c2cnn(CC(F)F)c2)C3=O)cnc1C`, the Ki is under 100 nM.

`COc1cc(-c2ccc3c(n2)CN(c2cnn(CCn4nc(C)cc4C)c2)C3=O)cnc1OC` showed an inhibition constant (Ki) of 100 to 490 nM.

The compound `COc1ncc(-c2ccc3c(n2)[C@@H](C)N(c2cnn(CC(F)(F)F)c2)C3=O)cc1O` returned an inhibition constant Ki of under 100 nM.

Turning to `COc1cc(-c2ccc3c(n2)CN(c2ccc(N(C)CC(OC)OC)nc2)C3=O)cnc1OC`, the inhibitory constant (Ki) was 100 to 490 nM.

Turning to `COc1cc(-c2ccc3c(n2)CN(c2cnn(C(F)(F)C(N)=O)c2)C3=O)cnc1OC`, the inhibition constant (Ki) is under 100 nM.

On to `COc1ncc(-c2cc(C)c3c(c2)C(C)N(c2cnn(CC(F)(F)F)c2)C3=O)cc1F` (stereo not given), for which the inhibition constant Ki was under 100 nM.

On to `CCOc1cncc(-c2cc(C)c3c(n2)[C@](C)(OC)N(c2cnn(CC(F)(F)F)c2)C3=O)c1`, for which the inhibition constant Ki was under 100 nM.

Compound `COc1cc(-c2ccc3c(n2)CN(c2ccnc(C(C)(C)C#N)c2)C3=O)cnc1OC` yielded a Ki of under 100 nM.

Take `COc1cc(-c2cc(C)c3c(n2)CN(c2cncs2)C3=O)cnc1OC`: the Ki is under 100 nM.

`COc1cc(-c2cc(C)c3c(n2)CN(c2ccc(C)s2)C3=O)cnc1OC` showed a Ki of under 100 nM.

In turn, `COCCOc1ncc(-c2cc(C)c3c(n2)C(C)N(c2ccn(C)n2)C3=O)cc1OC` (stereo not given) gave an inhibition constant Ki of under 100 nM.

The compound `COc1cncc(-c2cc(C)c3c(n2)C(C)N(c2cc[nH]n2)C3=O)c1` (stereo not given) returned a Ki of under 100 nM.

On to `COc1cc(-c2cc(C)c3c(n2)CN(c2ccc(CO)nc2)C3=O)cnc1OC`, for which the inhibition constant Ki was under 100 nM.

As for `Cc1cc(-c2cncc(OCC(F)F)c2)nc2c1C(=O)N(c1cnn(CC(F)(F)F)c1)C21CCOCC1`, the Ki was under 100 nM.

As to `CCNC(=O)c1cncc(-c2cc(C)c3c(n2)CN(c2ccn([C@H]4CCOC4)n2)C3=O)c1`, the Ki lay in the range of 100 to 490 nM.

`CCNS(=O)(=O)c1cc(-c2cc(C)c3c(n2)C(C)(C)N(c2cnn(CC(F)(F)F)c2)C3=O)cnc1OC` displayed a Ki of under 100 nM.

The compound `COc1cc(-c2cc(C)c3c(n2)[C@@H](C)N(c2cnn(C[C@@H](C)O)c2)C3=O)cnc1OC` registered an inhibitory constant (Ki) of under 100 nM.

In the case of `CCn1cc(N2Cc3nc(-c4cnc(OC)c(OC(F)F)c4)ccc3C2=O)cn1`, the inhibitory constant (Ki) was under 100 nM.

`COc1cccc(-c2cc(C)c3c(n2)CN(c2cnn(CC(F)(F)F)c2)C3=O)n1` showed a Ki of under 100 nM.

In the case of `COc1cc(-c2ccc3c(n2)CN(c2cnn(Cc4cccnc4C)c2)C3=O)cnc1OC`, the Ki was under 100 nM.

As to `Cc1cc(-c2cncc(C(=O)O)c2)nc2c1C(=O)N(c1cnn(CC(F)(F)F)c1)C2(C)C`, the Ki was under 100 nM.

Turning to `CCOc1cc(-c2cc(C)c3c(n2)CN(c2cnn(CC#N)c2)C3=O)cnc1OC`, the Ki was under 100 nM.

`COc1cc(-c2ccc3c(c2)CN(c2cnn([C@@H](C)C#N)c2)C3=O)cnc1OC` came in with a Ki of under 100 nM.

`Cc1cc(-c2cnc(N)c(OC(F)F)c2)nc2c1C(=O)N(c1cnn(CC(F)(F)F)c1)C2` displayed a Ki of under 100 nM.

As to `COc1cc(-c2ccc3c(n2)C(C)N(c2ccn(CC(F)(F)F)n2)C3=O)cnc1OC` (stereo not given), the inhibitory constant (Ki) was under 100 nM.

Compound `Cc1cc(-c2cnc(C)c(OCC(F)F)c2)nc2c1C(=O)N(c1cnn(CC(F)F)c1)C2(C)C` showed a Ki of under 100 nM.

On to `COc1cc(-c2cc(C)c3c(n2)C(C)(C)N(c2cnn(CC(F)F)c2)C3=O)cnc1C`, for which the Ki is under 100 nM.

On to `COc1cc(-c2ccc3c(n2)C(C)(C)N(c2cnn(CC#N)c2)C3=O)cnc1OC`, for which the inhibition constant (Ki) is under 100 nM.

On to `CCn1cc(N2Cc3nc(-c4ccc(OC)c(OC)c4)cc(C)c3C2=O)cn1`, for which the Ki was under 100 nM.

Regarding `COc1cc(-c2ccc3c(n2)CN(c2cc(C)[nH]n2)C3=O)cnc1OC`, the inhibition constant (Ki) is under 100 nM.

As to `COc1cc(-c2cc(C)c3c(n2)CN(c2cncc(OC(F)F)c2)C3=O)cnc1OC`, the inhibition constant (Ki) is under 100 nM.

`COc1ncc(-c2cc(C)c3c(n2)CN(c2cnn(CC(F)(F)F)c2)C3=O)cc1F` came in with a Ki of under 100 nM.

As for `Cc1cc(-c2cncc(OCC(F)(F)F)c2)nc2c1C(=O)N(c1cnn(CC(F)(F)F)c1)C2`, the Ki was under 100 nM.

Consider `COc1ccc(-c2cc(C)c3c(n2)CN(c2cnn(CC(F)(F)F)c2)C3=O)nc1OC`, for which the inhibitory constant (Ki) is under 100 nM.

In turn, `COc1cc(-c2ccc3c(n2)CN(c2ccc(CN4CCOCC4)nc2)C3=O)cnc1OC` yielded a Ki of 100 to 490 nM.

For `COc1cc(-c2ccc3c(n2)CN(c2cncc(CO)c2)C3=O)cnc1OC`, the Ki was under 100 nM.

The compound `COc1cc(-c2ccc3c(n2)CN(c2ccc(N4CCOC(CO)C4)nc2)C3=O)cnc1OC` (stereo not given) yielded a Ki of 100 to 490 nM.

The compound `COc1ncc(-c2cc(C)c3c(n2)CN(c2ccn(C4COC4)n2)C3=O)cc1OCC1CC1` showed a Ki of under 100 nM.

The compound `COCc1cc(N2Cc3nc(-c4cnc(OC)c(OC)c4)ccc3C2=O)nn1CC(F)(F)F` registered a Ki of under 100 nM.

`COc1cc(-c2ccc3c(n2)[C@H](C)N(c2cn[nH]c2)C3=O)cnc1OC` displayed a Ki of under 100 nM.

On to `COc1cncc(-c2cc(C)c3c(n2)C2(CN(C(C)=O)C2)N(c2cnn(CC(F)(F)F)c2)C3=O)c1`, for which the Ki was under 100 nM.

The compound `COc1cc(-c2ccc3c(n2)CN(c2cnn(Cc4cscn4)c2)C3=O)cnc1OC` had a Ki of under 100 nM.

Take `CCO[C@@H]1c2nc(-c3cnc(OC)c(OC)c3)cc(C)c2C(=O)N1c1cnn(CC(F)(F)F)c1`: the Ki was under 100 nM.

In turn, `CCNC(=O)c1cncc(-c2cc(C)c3c(n2)C(C)N(c2cnn(CC(F)(F)F)c2)C3=O)c1` (stereo not given) yielded an inhibitory constant (Ki) of under 100 nM.

`CCOC1c2nc(-c3cnc(OC)c(OC)c3)cc(C)c2C(=O)N1c1cnn(CC(F)(F)F)c1` (stereo not given): the Ki is under 100 nM.

For `Cc1cc(-c2cncc(C(=O)NC3CC3)c2)nc2c1C(=O)N(c1cnn(CC(F)(F)F)c1)C2`, the inhibitory constant (Ki) is under 100 nM.

Turning to `COc1cc(-c2ccc3c(n2)C(C)N(c2cnn(C=C(F)F)c2)C3=O)cnc1OC` (stereo not given), the inhibition constant (Ki) was under 100 nM.

Compound `COc1cncc(-c2cc(C)c3c(n2)C(C)N(c2ccn(C)n2)C3=O)c1` (stereo not given) had an inhibitory constant (Ki) of under 100 nM.

The compound `Cc1cc(-c2cncc(C(=O)N(C)C(C)CO)c2)nc2c1C(=O)N(c1cnn(CC(F)(F)F)c1)C2` (stereo not given) returned a Ki of 100 to 490 nM.

`CCOc1ncc(-c2cc(C)c3c(n2)C(O)N(c2cnn(CC(F)(F)F)c2)C3=O)cc1OC` (stereo not given) showed an inhibition constant Ki of under 100 nM.

`CCOc1cncc(-c2cc(C)c3c(n2)CN(c2cnn(CC(F)F)c2)C3=O)c1`: the Ki was under 100 nM.

Turning to `CCn1ccc(N2Cc3nc(-c4cnc(OC)c(OCC(F)(F)F)c4)cc(C)c3C2=O)n1`, the Ki was under 100 nM.

The values are drawn from the Kinase Knowledgebase extract (Sharma et al. 2016).
